Data published in article PMC9948168, “Vanillin-Based Indolin-2-one Derivative Bearing a Pyridyl Moiety as a Promising Anti-Breast Cancer Agent via Anti-Estrogenic Activity” (ACS Omega, 2023).

Columns and labels:
Assay in all cases: NCI-60 one-dose screening
Format in all cases: cell-based
NCI-H460 = details: Homo sapiens, NCI-H460, Non-Small Cell Lung Cancer, read-out: GI (%)
SW-620 = details: Homo sapiens, SW-620, Colon Cancer, read-out: GI (%)
UACC-257 = details: Homo sapiens, UACC-257, Melanoma, read-out: GI (%)
SK-OV-3 = details: Homo sapiens, SK-OV-3, Ovarian Cancer, read-out: GI (%)
HOP-92 = details: Homo sapiens, HOP-92, Non-Small Cell Lung Cancer, read-out: GI (%)
COLO 205 = details: Homo sapiens, COLO 205, Colon Cancer, read-out: GI (%)
DU-145 = details: Homo sapiens, DU-145, Prostate Cancer, read-out: GI (%)
HOP-62 = details: Homo sapiens, HOP-62, Non-Small Cell Lung Cancer, read-out: GI (%)
IGROV1 = details: Homo sapiens, IGROV-1, IGROV1, Ovarian Cancer, read-out: GI (%)
KM12 = details: Homo sapiens, KM12, Colon Cancer, read-out: GI (%)
LOX IMVI = details: Homo sapiens, Melanoma, read-out: GI (%)
SNB-75 = details: Homo sapiens, SNB-75, CNS Cancer, read-out: GI (%)
MALME-3M = details: Homo sapiens, Melanoma, read-out: GI (%)
TK-10 = details: Homo sapiens, TK-10, Renal Cancer, read-out: GI (%)
OVCAR-8 = details: Homo sapiens, OVCAR-8, Ovarian Cancer, read-out: GI (%)
HCT-15 = details: Homo sapiens, HCT-15, Colon Cancer, read-out: GI (%)
MDA-MB-231/ATCC = details: Homo sapiens, Breast Cancer, read-out: GI (%)
RPMI-8226 = details: Homo sapiens, RPMI-8226, Leukemias, read-out: GI (%)
CCRF-CEM = details: Homo sapiens, Leukemias, read-out: GI (%)
HT29 = details: Homo sapiens, HT-29, HT29, Colon Cancer, read-out: GI (%)
NCI-H322M = details: Homo sapiens, Non-Small Cell Lung Cancer, read-out: GI (%)
A498 = details: Homo sapiens, A498, Renal Cancer, read-out: GI (%)
SF-539 = details: Homo sapiens, SF-539, CNS Cancer, read-out: GI (%)
ACHN = details: Homo sapiens, Renal Cancer, read-out: GI (%)
MCF7 = details: Homo sapiens, MCF7, 10 μM; MCF7, Breast Cancer; read-out: GI (%)
K-562 = details: Homo sapiens, K562, K-562, Leukemias, read-out: GI (%)
U251 = details: Homo sapiens, U-251, U251, CNS Cancer, read-out: GI (%)
SN12C = details: Homo sapiens, Renal Cancer, read-out: GI (%)
MDA-MB-468 = details: Homo sapiens, MDA-MB-468, Breast Cancer, read-out: GI (%)
MDA-MB-435 = details: Homo sapiens, MDA-MB-435, Melanoma, read-out: GI (%)
NCI-H226 = details: Homo sapiens, NCI-H226, Non-Small Cell Lung Cancer, read-out: GI (%)
OVCAR-5 = details: Homo sapiens, OVCAR-5, Ovarian Cancer, read-out: GI (%)
SR = details: Homo sapiens, Leukemias, read-out: GI (%)
HCT-116 = details: Homo sapiens, HCT-116, Colon Cancer, read-out: GI (%)
786-0 = details: Homo sapiens, 786-0, Renal Cancer, read-out: GI (%)
PC-3 = details: Homo sapiens, PC-3, Prostate Cancer, read-out: GI (%)

Question: COc1cc(/C=C2/C(=O)Nc3ccc(Cl)cc32)ccc1OCc1ccccc1 [6f] was tested. Which inhibition at 10 µM (NCI-H460) did it give?
Answer: The inhibition at 10 µM was -1.96%.

Question: And the inhibition at 10 µM (SW-620)?
Answer: Its inhibition at 10 µM is 4.03%.

Question: What about the inhibition at 10 µM (UACC-257) of the same compound?
Answer: Its inhibition at 10 µM is -3.74%.

Question: And the inhibition at 10 µM (SK-OV-3)?
Answer: The inhibition at 10 µM was -9.53%.

Question: What about the inhibition at 10 µM (HOP-92) of the same compound?
Answer: Its inhibition at 10 µM is 6.71%.

Question: And the inhibition at 10 µM (COLO 205)?
Answer: The inhibition at 10 µM was -7.79%.

Question: What about the inhibition at 10 µM (DU-145) of the same compound?
Answer: The inhibition at 10 µM was -11.6%.

Question: And the inhibition at 10 µM (HOP-62)?
Answer: The inhibition at 10 µM was 6.15%.

Question: And the inhibition at 10 µM (IGROV1)?
Answer: The inhibition at 10 µM was 1.82%.

Question: And the inhibition at 10 µM (KM12)?
Answer: The inhibition at 10 µM was -0.66%.

Question: What about the inhibition at 10 µM (LOX IMVI) of the same compound?
Answer: Its inhibition at 10 µM is -3.97%.

Question: And the inhibition at 10 µM (SNB-75)?
Answer: Its inhibition at 10 µM is 7.95%.

Question: And the inhibition at 10 µM (MALME-3M)?
Answer: The inhibition at 10 µM was -1.28%.

Question: What about the inhibition at 10 µM (TK-10) of the same compound?
Answer: The inhibition at 10 µM was -15.1%.

Question: What about the inhibition at 10 µM (OVCAR-8) of the same compound?
Answer: The inhibition at 10 µM was -6.25%.

Question: What about the inhibition at 10 µM (HCT-15) of the same compound?
Answer: The inhibition at 10 µM was 4.2%.

Question: What about the inhibition at 10 µM (MDA-MB-231/ATCC) of the same compound?
Answer: The inhibition at 10 µM was 7.87%.

Question: What about the inhibition at 10 µM (RPMI-8226) of the same compound?
Answer: Its inhibition at 10 µM is -5.21%.

Question: What about the inhibition at 10 µM (CCRF-CEM) of the same compound?
Answer: Its inhibition at 10 µM is 1.07%.

Question: And the inhibition at 10 µM (HT29)?
Answer: Its inhibition at 10 µM is -2.07%.

Question: And the inhibition at 10 µM (NCI-H322M)?
Answer: The inhibition at 10 µM was 2.56%.

Question: What about the inhibition at 10 µM (A498) of the same compound?
Answer: The inhibition at 10 µM was -2.34%.

Question: And the inhibition at 10 µM (SF-539)?
Answer: Its inhibition at 10 µM is 2.76%.

Question: And the inhibition at 10 µM (ACHN)?
Answer: Its inhibition at 10 µM is 3.68%.

Question: What about the inhibition at 10 µM (MCF7) of the same compound?
Answer: The inhibition at 10 µM was 19.2%.

Question: What about the inhibition at 10 µM (K-562) of the same compound?
Answer: The inhibition at 10 µM was -8.73%.

Question: What about the inhibition at 10 µM (U251) of the same compound?
Answer: The inhibition at 10 µM was 2.36%.

Question: And the inhibition at 10 µM (SN12C)?
Answer: Its inhibition at 10 µM is 3.2%.

Question: What about the inhibition at 10 µM (MDA-MB-468) of the same compound?
Answer: Its inhibition at 10 µM is 5.59%.

Question: And the inhibition at 10 µM (MDA-MB-435)?
Answer: The inhibition at 10 µM was -1.21%.

Question: What about the inhibition at 10 µM (NCI-H226) of the same compound?
Answer: Its inhibition at 10 µM is 1.24%.

Question: What about the inhibition at 10 µM (OVCAR-5) of the same compound?
Answer: Its inhibition at 10 µM is -0.26%.

Question: What about the inhibition at 10 µM (SR) of the same compound?
Answer: Its inhibition at 10 µM is -9.47%.

Question: And the inhibition at 10 µM (HCT-116)?
Answer: Its inhibition at 10 µM is -13%.

Question: And the inhibition at 10 µM (786-0)?
Answer: The inhibition at 10 µM was -3.53%.

Question: And the inhibition at 10 µM (PC-3)?
Answer: The inhibition at 10 µM was 10%.
